From US9371295B2, “Compounds for use in the treatment of disorders that are ameliorated by inhibition of HDAC” (IRBM—Science Park S.p.A., priority 2012, dated 2016) come the findings set out here.

A short description of series [1]: Intrinsic clearance in pooled rat liver microsomes. As to conditions: pH 7.4. Format: in vitro ADME. As for the experimental part:
Assays were performed in presence of 0.5 mg/ml of microsomal protein, with a NADPH-generating system (1 mM NADP, 2.5 mM glucose 6-phosphate and 2 U/ml glucose 6-phosphate dehydrogenase) in 100 mM potassium phosphate buffer containing 3.3 mM MgCl2 (pH 7.4). Tested compounds were stored in 10 mM DMSO solution and incubated at 1 μM final concentration (final DMSO concentration in incubation less than 0.1%). Microsomes and substrates were preincubated at 37° C. for 5 min and then the enzymatic reactions were initiated by the addition of cofactors and incubated at 37° C. for up to 90 min. Incubations were terminated by the addition of an equivalent volume of cold acetonitrile containing I.S. Control incubations, where the substrate was incubated in the same buffer system containing pRLM without the NADPH-generating system, were also run.

A short description of series [2]: Intrinsic clearance in pooled mouse liver microsomes. It counts as in vitro ADME. As to conditions: pH 7.4.
Series [3] can be described thus: Mouse in vivo pharmacokinetics, oral dose. The conditions noted are these: plasma. The protocol: Compounds of the invention were evaluated in in vitro and in vivo pharmacokinetic studies.
The nature of series [4]: Rat PK studies, oral dose. It counts as in vivo, Sprague-Dawley rats. As to conditions: male, Sprague-Dawley, plasma, po 10 mg/kg. As for the experimental part: Rats Male Sprague-Dawley rats (250-350 g) were used for the absorption disposition studies. In each rat an indwelling cannula was implanted in the right jugular vein for blood sampling. The surgery was performed under light anaesthesia (Ketamine-Xilazine (85 mg/kg and 2.5 mg/kg respectively i.m.) one day prior the experiment). During the kinetic study, all animals were housed individually in plastic metabolism cages, and were unrestrained throughout the experiment. Compounds (6 mg/mL) were dissolved in 20% DMSO/60% PEG400/20% water for intravenous administration, and dissolved or suspended in 1% methylcellulose for oral administration (2 mg/ml). After an overnight fast, the rats received an i.v. (via caudal vein) or an oral dose of the compound. Blood samples were collected at different times point after dosing. Plasma was separated immediately after blood sampling by centrifugation, and the plasma samples were kept frozen (−20° C.) until assayed by LC/MS/MS.
Analytical procedures: Plasma samples were extracted using Liquid Handling Robot MultiProbe Packard by protein precipitation with acetonitrile. Then the samples were centrifuged (3000 rpm×15 min at 4° C.) and the supernatant transferred and dried under nitrogen. The samples were reconstituted in water/acetonitrile 90/10 and then injected directly into an HPLC column. Sample analyses were performed using a an API 3000 or/and API 2000 or/and API 4000 Mass Spectrometer interfaced via the Turbo Ion Spray (ESI)/APCI to an LC system consisting of an HTS PAL CTC autosampler and an Agilen HP 1100 Binary Pump. The results are calculated using Analyst Software linear regression with 1/x*x weighting. The Assay Precision was calculated for the Quality Controls by Watson Lims database.
Pharmacokinetic Analysis: The plasma clearance (CLp) of the compounds were calculated (using Watson PK program) as the dose divided by the area under the plasma concentration-time curve from time zero to infinity (AUC0-∞). The apparent half-life was estimated from the slope of the terminal phase of the log plasma concentration-time data. The volume of distribution (Vdss) was determined using the following noncompartmental method: Vdss=(Dose IV×AUMC)/(AUC0-∞)2
where AUMC is the total area under the first moment of the drug concentration time curve from time zero to infinity. Bioavailability was estimated as the AUC0-∞ ratio following oral and intravenous administration, normalized for differences in dose.

Structures are written as SMILES.

`CCC(=O)CCCCC[C@H](NC(=O)C1CN(C)C1)c1ncc(-c2cc3ccccc3nc2OC)o1` [Compound 2, (S)-N-(1-(5-(2-methoxyquinolin-3-yl)oxazol-2-yl)-7-oxononyl)-1-methylazetidine-3-carboxamide]: the intrinsic clearance (microsomal CLint) at 1 μM in series [1] was 33 µL/min/mg; in series [2] it was 27 µL/min/mg. Further, the AUC in series [3] (po 20 mg/kg) came out at 22.4 µM·h; in series [4] it was 40 µM·h. For the same compound, the Cmax in series [3] (po 20 mg/kg) was determined as 1870 nM; in series [4], 2790 nM.
`CCC(=O)CCCCC[C@H](NC(=O)C1CN(C)C1)c1ncc(-c2cc3ccccc3n(C)c2=O)o1` [Compound 92, (S)-1-methyl-N-(1-(5-(1-methyl-2-oxo-1,2-dihydroquinolin-3-yl)oxazol-2-yl)-7-oxononyl)azetidine-3-carboxamide] gave a microsomal CLint at 1 μM in series [1] of 15 µL/min/mg. This compound showed a microsomal CLint at 1 μM in series [2] of 13 µL/min/mg. In series [3] (po 10 mg/kg), this compound gave an AUC of 0.32 µM·h and a Cmax of 100 nM.
